Source: ChEMBL document CHEMBL5030562, “Synthesis and antiviral evaluation of cytisine derivatives against dengue virus types 1 and 2” (Bioorg Med Chem Lett, 2021)
pIC50: −log10 of the molar value. Active and inactive are the calls of the source. No cut-off for these calls is given here.

Assays:
[1] = tested on: dengue virus type 2; assay: Antiviral activity against DENV2 infected in African green monkey Vero E6 cells assessed as reduction in induced cytopathic effect at 10 uM after 96 hrs by immunofluorescent staining based inverted microscopic analysis; type: functional, organism-based
[2] = tested on: dengue virus type 2; assay: Antiviral activity against DENV2 infected in African green monkey Vero E6 cells assessed as inhibition of virus induced cytopathic effect at 10 uM measured after 96 hrs by immunofluorescent staining based inverted microscopic analysis relative to control; type: functional; conditions: Vero C1008
[3] = Cytotoxicity against African green monkey Vero E6 cells assessed as reduction in cell viability by MTT assay; type: cell-based, Vero C1008; conditions: chlorocebus sabaeus
[4] = tested on: A549; assay: Cytotoxicity against human A549 cells assessed as reduction in cell viability by MTT assay; type: functional
[5] = tested on: dengue virus type 1; assay: Antiviral activity against DENV1 infected in African green monkey Vero E6 cells assessed as reduction in induced cytopathic effect at 10 uM after 96 hrs by immunofluorescent staining based inverted microscopic analysis; type: functional, organism-based
[6] = tested on: dengue virus type 2; assay: Antiviral activity against DENV2 infected in African green monkey Vero E6 cells assessed as inhibition of virus induced cytopathic effect measured after 96 hrs by immunofluorescent staining based inverted microscopic analysis; type: functional, organism-based; conditions: Vero C1008, 96 h
[7] = Selectivity index, ratio of CC50 for cytotoxicity in African green monkey Vero E6 cells to IC50 for Antiviral activity against DENV2 infected in African green monkey Vero E6 cells; type: toxicity, cell-based, Vero C1008; conditions: read-out: Ratio CC50/IC50
[8] = tested on: dengue virus type 2; assay: Antiviral activity against DENV2 infected in human A549 cells assessed as inhibition of virus induced cytopathic effect measured after 96 hrs by immunofluorescent staining based inverted microscopic analysis; type: functional, organism-based; conditions: A549, 96 h
[9] = Selectivity index, ratio of CC50 for cytotoxicity in human A549 cells to IC50 for Antiviral activity against DENV2 infected in African green monkey Vero E6 cells; type: toxicity, cell-based
[10] = tested on: dengue virus type 1; assay: Antiviral activity against DENV1 infected in African green monkey Vero E6 cell assessed as inhibition of virus induced cytopathic effect at 10 uM measured after 96 hrs by immunofluorescent staining based inverted microscopic analysis relative to control; type: functional; conditions: Vero C1008
[11] = tested on: dengue virus type 1; assay: Antiviral activity against DENV1 infected in African green monkey Vero E6 cells assessed as inhibition of virus induced cytopathic effect measured after 96 hrs by immunofluorescent staining based inverted microscopic analysis; type: functional, organism-based; conditions: Vero C1008, 96 h
[12] = tested on: dengue virus type 1; assay: Selectivity index, ratio of CC50 for cytotoxicity in African green monkey Vero E6 cells to IC50 for Antiviral activity against DENV1 infected in African green monkey Vero E6 cells; type: functional, Vero C1008
[13] = tested on: dengue virus type 2; assay: Antiviral activity against Dengue virus 2 infected in African green monkey Vero E6 cells assessed as inhibition of viral replication at entry stage measured after 96 hrs by DAPI staining based fluorescence microscopic analysis; type: functional, organism-based; conditions: Vero C1008, 96 h
[14] = tested on: dengue virus type 2; assay: Antiviral activity against Dengue virus 2 infected in African green monkey Vero E6 cells assessed as inhibition of viral replication at post entry stage measured after 96 hrs by DAPI staining based fluorescence microscopic analysis; type: functional, organism-based; conditions: Vero C1008, 96 h
[15] = tested on: dengue virus type 2; assay: Antiviral activity against Dengue virus 2 infected in African green monkey Vero E6 cells assessed as inhibition of viral replication at attachment stage measured after 96 hrs by DAPI staining based fluorescence microscopic analysis; type: functional, organism-based; conditions: Vero C1008, 96 h
[16] = tested on: Influenza A virus; assay: Antiviral activity against Influenza A virus; type: functional, organism-based
[17] = tested on: Human respirovirus 3; assay: Antiviral activity against Parainfluenza virus type 3; type: functional, organism-based
[18] = tested on: Hepatitis B virus; assay: Antiviral activity against Hepatitis B virus; type: functional, organism-based

With `O=c1ccc(Cl)c2n1C[C@@H]1C[C@H]2CN(C(=S)Nc2ccccc2)C1` the Activity [1] was “Active”, the inhibition at 10 µM [2] was 11.2% and the CC50 [3] was greater than 50000 nM. It also gave a CC50 [4] greater than 50000 nM.
With `CN1C[C@H]2C[C@@H](C1)c1ccc(NCc3ccccc3O)c(=O)n1C2` the Activity [1] was “Active”, the inhibition at 10 µM [2] was 39% and the CC50 [3] was greater than 50000 nM. The CC50 [4] was greater than 50000 nM.
For `Cn1cc(CNc2ccc3n(c2=O)C[C@@H]2C[C@H]3CN(Cc3ccccc3)C2)c(=O)n(C)c1=O` (single isomer, unassigned), the Activity [1] was “Active”, the inhibition at 10 µM [2] was 58.8% and the CC50 [3] was greater than 50000 nM. For the same molecule, the CC50 [4] was greater than 50000 nM.
In the case of `CN1C[C@H]2C[C@@H](C1)c1ccc(NC/C=C/c3ccccc3)c(=O)n1C2`, the Activity [1] was “Active”, the inhibition at 10 µM [2] was 3.2% and the CC50 [3] was greater than 50000 nM. For the same molecule, the CC50 [4] was greater than 50000 nM.
With `O=c1cccc2n1C[C@@H]1C[C@H]2CN(C(=S)Nc2ccccc2)C1` the Activity [1] was “Active”, the inhibition at 10 µM [2] was 59.4% and the CC50 [3] was greater than 50000 nM. The CC50 [4] was greater than 50000 nM.
With `C=CCNC(=S)N1C[C@H]2C[C@@H](C1)c1ccc([N+](=O)[O-])c(=O)n1C2` the Activity [1] was “Active”, the inhibition at 10 µM [2] was 48.9% and the CC50 [3] was greater than 50000 nM. It also gave a CC50 [4] greater than 50000 nM.
In the case of `CN1C[C@H]2C[C@@H](C1)c1ccc(NCc3ccc(O)cc3)c(=O)n1C2`, the Activity [1] was “Active”, the inhibition at 10 µM [2] was 70.6% and the CC50 [3] was greater than 50000 nM. For the same molecule, the Activity [5] was “Active”, the pIC50 [6] was 5.64 and the selectivity ratio [7] was greater than 21.7. It also gave a CC50 [4] greater than 50000 nM, a pIC50 [8] of 6.11 and a selectivity ratio [9] greater than 64.1. The inhibition at 10 µM [10] was 64.8%, the pIC50 [11] was 6.01 and the “Ratio CC50/IC50” value [12] was greater than 51.5. It also gave a pIC50 [13] of 6.33, a pIC50 [14] greater than 7.00 and a pIC50 [15] of less than 5.00. For the same molecule, the pIC50 [16] was less than 5.52, the pIC50 [17] was less than 5.52 and the pIC50 [18] was less than 5.52.
In the case of `CC(C)NC(=O)Nc1ccc2n(c1=O)C[C@@H]1C[C@H]2CN(C)C1` (single isomer, unassigned), the Activity [1] was “Active”, the inhibition at 10 µM [2] was 19.7% and the CC50 [3] was greater than 50000 nM. The CC50 [4] was greater than 50000 nM.
In the case of `C=CCNC(=S)N1C[C@H]2C[C@@H](C1)c1cccc(=O)n1C2`, the Activity [1] was “Active”, the inhibition at 10 µM [2] was 86.4% and the CC50 [3] was greater than 50000 nM. For the same molecule, the Activity [5] was “Active”, the pIC50 [6] was greater than 7.00 and the selectivity ratio [7] was greater than 500. The CC50 [4] was greater than 50000 nM, the pIC50 [8] was greater than 7.00 and the selectivity ratio [9] was greater than 500. The inhibition at 10 µM [10] was 81.2%, the pIC50 [11] was 6.85 and the “Ratio CC50/IC50” value [12] was greater than 357.1. The pIC50 [13] was greater than 7.00, the pIC50 [14] was 5.12 and the pIC50 [15] was 6.50. The pIC50 [16] was less than 5.52, the pIC50 [17] was less than 5.52 and the pIC50 [18] was less than 5.52.
In the case of `Cn1cc(CNc2ccc3n(c2=O)C[C@@H]2C[C@H]3CN(C(=O)Nc3ccccc3)C2)c(=O)n(C)c1=O`, the Activity [1] was “Active”, the inhibition at 10 µM [2] was 74% and the CC50 [3] was greater than 50000 nM. The Activity [5] was “Active”, the pIC50 [6] was greater than 7.00 and the selectivity ratio [7] was greater than 500. The CC50 [4] was greater than 50000 nM, the pIC50 [8] was 6.33 and the selectivity ratio [9] was greater than 106. For the same molecule, the inhibition at 10 µM [10] was 57.7%, the pIC50 [11] was 6.31 and the “Ratio CC50/IC50” value [12] was greater than 102. The pIC50 [13] was 6.07, the pIC50 [14] was greater than 7.00 and the pIC50 [15] was 5.19. For the same molecule, the pIC50 [16] was less than 5.52, the pIC50 [17] was less than 5.52 and the pIC50 [18] was less than 5.52.
In the case of `Cn1cc(CNc2ccc3n(c2=O)C[C@@H]2C[C@H]3CN3CCCCC23)c(=O)n(C)c1=O` (stereo partly specified), the Activity [1] was “Active”, the inhibition at 10 µM [2] was 53.3% and the CC50 [3] was greater than 50000 nM. It also gave a CC50 [4] greater than 50000 nM.
In the case of `CC(C)NC(=S)Nc1ccc2n(c1=O)C[C@@H]1CC2CN(C)C1` (single isomer, unassigned), the Activity [1] was “Active”, the inhibition at 10 µM [2] was 61.4% and the CC50 [3] was greater than 50000 nM. The CC50 [4] was greater than 50000 nM.
In the case of `CCOC(=O)CNC(=S)Nc1ccc2n(c1=O)C[C@@H]1C[C@H]2CN(C)C1`, the Activity [1] was “Active”, the inhibition at 10 µM [2] was 60.9% and the CC50 [3] was greater than 50000 nM. For the same molecule, the CC50 [4] was greater than 50000 nM.
With `CCOC(=O)CNC(=O)Nc1ccc2n(c1=O)C[C@@H]1C[C@H]2CN(C)C1` (single isomer, unassigned) the Activity [1] was “Active”, the inhibition at 10 µM [2] was 40.3% and the CC50 [3] was greater than 50000 nM. For the same molecule, the CC50 [4] was greater than 50000 nM.
With `C=CCN1C[C@H]2C[C@@H](C1)c1ccc(NCc3cn(C)c(=O)n(C)c3=O)c(=O)n1C2` the Activity [1] was “Active”, the inhibition at 10 µM [2] was 43.3% and the CC50 [3] was greater than 50000 nM. The CC50 [4] was greater than 50000 nM.
With `CN1C[C@H]2C[C@@H](C1)c1ccc([N+](=O)[O-])c(=O)n1C2` the Activity [1] was “Active”, the inhibition at 10 µM [2] was 76.7% and the CC50 [3] was greater than 50000 nM. For the same molecule, the Activity [5] was “Active”, the selectivity ratio [7] was greater than 500 and the CC50 [4] was greater than 50000 nM. The pIC50 [8] was 6.11, the selectivity ratio [9] was greater than 64.9 and the inhibition at 10 µM [10] was 61.2%. The pIC50 [11] was 5.62, the “Ratio CC50/IC50” value [12] was greater than 20.8 and the pIC50 [13] was 5.95. It also gave a pIC50 [14] of 5.86, a pIC50 [15] of 6.08 and a pIC50 [16] of less than 5.52. The pIC50 [17] was less than 5.52 and the pIC50 [18] was less than 5.52.
With `COC(=O)CN1C[C@H]2C[C@@H](C1)c1ccc(NCc3cn(C)c(=O)n(C)c3=O)c(=O)n1C2` the Activity [1] was “Active”, the inhibition at 10 µM [2] was 63.9% and the CC50 [3] was greater than 50000 nM. It also gave a CC50 [4] greater than 50000 nM.
For `CN1C[C@H]2C[C@@H](C1)c1ccc(NCc3cn(C)c(=O)n(C)c3=O)c(=O)n1C2` (single isomer, unassigned), the Activity [1] was “Active”, the inhibition at 10 µM [2] was 79.2% and the CC50 [3] was greater than 50000 nM. The Activity [5] was “Active”, the pIC50 [6] was greater than 7.00 and the selectivity ratio [7] was greater than 109. For the same molecule, the CC50 [4] was greater than 50000 nM, the pIC50 [8] was 6.18 and the selectivity ratio [9] was greater than 75.8. For the same molecule, the inhibition at 10 µM [10] was 73.9%, the pIC50 [11] was 5.86 and the “Ratio CC50/IC50” value [12] was greater than 36.2. It also gave a pIC50 [13] of 5.73, a pIC50 [14] of 6.63 and a pIC50 [15] of 5.03. The pIC50 [16] was less than 5.52, the pIC50 [17] was less than 5.52 and the pIC50 [18] was less than 5.52.
